Key:
Format in all cases: cell-based, mouse
MIN6 cells = assay: Immunoblotting of MIN6 whole cell lysates; conditions: MIN6 pretreated with inhibitors 16 h (FIG. 4A); nifedipine in combination with the chelating agent BAPTA
Description: FIGS. 2[…]-1) activates insulin expression and improves β cell function in MIN6 cells. (FIG. 2A) Dose-response relationship of MIN6 cells treated with 5-80 μM Isx for 24 h or DMSO (0.08%-similar to the highest concentration of Isx). Whole cell lysates (40 μg) were subjected to immunoblotting using antibodies against BETA2NeuroD1, MafA, PDX-1, pERK1/2 (pT183/[…]), acetylated histones […] and ACH3K9 and total histone H3. (FIG. 2B) Quantitative RT-PCR of murine insulin1 and insulin2 gene expression in MIN6 cells treated with Isx for 24 h as in FIG. 2A. […] (FIG. 2D) Insulin content measured by ELISA in MIN6 cells treated with Isx for 24 or 48 h. (FIG. 2E) GSIS induced by glucose, amino acids (AA) and Exendin-4 (Ex-4) singly or in combination in MIN6 cells pretreated with Isx for 48 h. FIGS. 4[…]-1) is a HAT activator. (FIG. 4A) Immunoblots of acetylated histones in MIN6 cells pretreated with the indicated inhibitors for 16 h and then treated with vehicle or Isx. (FIGS. 4B-C) HDAC (FIG. 4B) and HAT (FIG. 4C) activities in 50 μg of nuclear extract protein from MIN6 cells treated with Isx or DMSO for 24 h. Trichostatin A (TSA; 2 μM) was added at as a positive control. HeLa nuclear extract also was included as a positive control. […] Statistical analysis was performed using Student's t test as in FIGS. 1A-E. *P<0.05; **P<0.01. (FIG. 4G) Simplified view of the actions of Isx. FIG. 6. Time course of […]-1) treatment in MIN6 cells. Immunoblotting of whole cell extracts from MIN6 cells grown for 24 h in complete DMEM containing […] and treated with 20 μM Isx for from 15 min to 24 h. The control (0 min) was treated with DMSO for 24 h. MIN6 cells were cultured in DMEM (Gibco), containing 25 mM glucose, 10% fetal bovine serum, 10 mM Hepes pH 7.4, 10.2 mM L-glutamine, […] sodium pyruvate, 2.5 mM β-mercaptoethanol, 100 U/ml penicillin and 100 μg/ml streptomycin at 37° C. in 10% CO2. Human islets were obtained from the ICR Basic Science Islet Distribution and from the University of Alabama, Birmingham Islet Resource Facility and were cultured in RPMI 1640 with 11 mM glucose for up to 1 year. The medium was changed twice weekly and the islets were subcultured when they reached 90% confluence. For Isx treatments, cells were incubated in medium containing either Isx or the equivalent volume of DMSO vehicle (0.04%). To measure GSIS, cells were placed in Krebs-Ringer bicarbonate/Hepes containing 0.1% bovine serum albumin and 2 mM glucose for 2 h, and stimulated for 15 min with 20 mM glucose, a 1× amino-acid mixture (concentrations as in DMEM), or 50 nM Exendin-4.

HAT = HAT activity in nuclear extracts of treated MIN6 cells; conditions: MIN6 cells expressing p300; 10 μM U0126
Description: (§1) The histone acetyl transferase and deacetylase activities were measured in 50 μg of nuclear protein using the HAT and HDAC activity colorimetric assay kits from Biovision Biotechnology according to manufacturer's recommendations.

HDAC = HDAC activity in nuclear extracts of treated MIN6 cells; conditions: 24 h treatment, TSA 2 μM positive control (FIG. 4B)
Description: as §1

## O=C(NOC[C@H](O)CO)c1ccc(F)c(F)c1Nc1ccc(I)cc1F [PD325901, reference compound]
MIN6 cells
  effect on Isx-induced acetylation of H4: inhibited
  effect on acetylation of H3 on lysines 9 and 14 induced by Isx: little effect

## N#CC(=C(/N)Sc1ccccc1N)/C(C#N)=C(\N)Sc1ccccc1N [U0126, reference compound]
MIN6 cells
  effect on Isx-induced acetylation of H4: inhibited
  effect on acetylation of H3 on lysines 9 and 14 induced by Isx: little effect
HAT
  effect on the Isx-induced increase in HAT activity: inhibited

## COC[C@H]1OC(=O)c2coc3c2[C@@]1(C)C1=C(C3=O)[C@@H]2CCC(=O)[C@@]2(C)C[C@H]1OC(C)=O [wortmannin, reference compound]
MIN6 cells
  effect on Isx-induced acetylation of H4: no effect
  effect on acetylation of H3 on lysines 9 and 14 induced by Isx: no effect

## trichostatin A [reference compound]
HDAC
  HDAC activity in MIN6 cells: inhibited
